Among the data in patent publication US8759535B2, “Substituted fused imidazole derivatives, pharmaceutical compositions, and methods of use thereof” (High Point Pharmaceuticals, LLC, priority 2010, dated 2014) are fold induction values, retold here.

Counter-ions that a name gives are not always drawn.

One assay relates to HMOX1. As to the kind of experiment: HMOX1 Protein Assay (immunostaining of HO-1 in NHLF cells, GE InCell 1000). To be noted: Homo sapiens, fold change above DMSO treated cells, 3 μM compound (asterisk), 16 h. The assay is classed as cell-based. The essentials:
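Fold induction of HO-1 over vehicle, normally at 5 μM compound (asterisk marks 3 μM), in 0.8% DMSO medium. Normal human lung fibroblasts were treated 16 h, then paraformaldehyde-fixed, anti-HO-1/Alexa 488 stained with Hoechst, and read by high-content imaging.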
Regarding `C[C@@H](NC(=O)c1ccc2c(c1)nc(Nc1nc3ccc(C(F)(F)F)cc3s1)n2C)C(=O)N(C)C` [Example 468, 1-Methyl-2-(6-trifluoromethyl-benzothiazol-2-ylamino)-1H-benzoimidazole-5-carboxylic acid ((R)-1-dimethylcarbamoyl-ethyl)-amide], the fold induction at 3 µM came out at 26.3. With `Cn1c(Nc2nc3ccc(C(F)(F)F)cc3s2)nc2cc(C(=O)NCCC(=O)N3CCOCC3)ccc21` [Example 374, 1-Methyl-2-(6-trifluoromethyl-benzothiazol-2-ylamino)-1H-benzoimidazole-5-carboxylic acid (3-morpholin-4-yl-3-oxo-propyl)-amide], the fold induction at 3 µM turned out to be 34.2. As for `C[C@H](NC(=O)c1ccc2c(c1)nc(Nc1nc3ccc(C(F)(F)F)cc3s1)n2C)C(=O)N(C)C` [Example 463, 1-Methyl-2-(6-trifluoromethyl-benzothiazol-2-ylamino)-1H-benzoimidazole-5-carboxylic acid ((S)-1-dimethylcarbamoyl-ethyl)-amide], the fold induction at 3 µM was 26.7.

Staying with this assay, now noted: Homo sapiens, fold change above DMSO treated cells, 5 μM compound, 16 h.
On to `CCn1c(Nc2nc3ccc(OC(F)(F)F)cc3s2)nc2cc(C(=O)NC)ccc21` [Example 155, 1-Ethyl-2-(6-trifluoromethoxy-benzothiazol-2-ylamino)-1H-benzoimidazole-5-carboxylic acid methylamide], for which the fold induction at 5 µM is 24.3.

`C[C@@H](CO)CCNC(=O)c1ccc2c(c1)nc(Nc1nc3ccc(OC(F)(F)F)cc3s1)n2C` [Example 223, 1-Methyl-2-(6-trifluoromethoxy-benzothiazol-2-ylamino)-1H-benzoimidazole-5-carboxylic acid ((R)-4-hydroxy-3-methyl-butyl)-amide] displayed a fold induction at 5 µM of 44.7. On the same count and under the same terms, next, `Cn1c(Nc2nc3ccc(OC(F)(F)F)cc3s2)nc2cc(C(=O)NCCC(=O)OC(C)(C)C)ccc21` [Example 136, 3-{[1-Methyl-2-(6-trifluoromethoxy-benzothiazol-2-ylamino)-1H-benzimidazole-5-carbonyl]-amino}-propionic acid tert-butyl ester]: 5.7; `CN(C)CC(=O)NCCNC(=O)c1ccc2c(c1)nc(Nc1nc3ccc(Cl)cc3s1)n2C` [Example 324, 2-(6-Chloro-benzothiazol-2-ylamino)-1-methyl-1H-benzoimidazole-5-carboxylic acid [2-(2-dimethylamino-acetylamino)-ethyl]-amide]: 27.9; `Cn1c(Nc2nc3ccc(OC(F)(F)F)cc3s2)nc2cc(C(=O)N(CCO)CCO)ccc21` [Example 284, 1-Methyl-2-(6-trifluoromethoxy-benzothiazol-2-ylamino)-1H-benzoimidazole-5-carboxylic acid bis-(2-hydroxy-ethyl)-amide]: 47.4.

`CC(=O)c1ccc2c(c1)nc(Nc1nc3ccc(OC(F)(F)F)cc3s1)n2C` [Example 200, 1-[1-Methyl-2-(6-trifluoromethoxy-benzothiazol-2-ylamino)-1H-benzoimidazol-5-yl]-ethanone] yielded a fold induction at 5 µM of 22.9.

The compound `Cn1c(Nc2nc3ccc(OC(F)(F)F)cc3s2)nc2cc(C(=O)NC3CCN(CC(C)(C)O)C3)ccc21` (centres unmarked) [Example 298, 1-Methyl-2-(6-trifluoromethoxy-benzothiazol-2-ylamino)-1H-benzoimidazole-5-carboxylic acid [1-(2-hydroxy-2-methyl-propyl)-pyrrolidin-3-yl]-amide] yielded a fold induction at 5 µM of 21.1. With `Cn1c(Nc2nc3ccc(OC(F)(F)F)cc3s2)nc2cc(C(=O)NCCF)ccc21` [Example 9, 1-Methyl-2-(6-trifluoromethoxy-benzothiazol-2-ylamino)-1H-benzoimidazole-5-carboxylic acid (2-fluoro-ethyl)-amide], the fold induction at 5 µM was found to be 11.2.

For the compound `Cn1c(Nc2nc3ccc(Cl)cc3s2)nc2cc(C(=O)N[C@@H]3CCN(CCO)C3)ccc21` [Example 292, 2-(6-Chloro-benzothiazol-2-ylamino)-1-methyl-1H-benzoimidazole-5-carboxylic acid [(R)-1-(2-hydroxy-ethyl)-pyrrolidin-3-yl]-amide], the fold induction at 5 µM turned out to be 39.

`CCOCCNC(=O)c1ccc2c(c1)nc(Nc1nc3ccc(Cl)cc3s1)n2C` [Example 89, 2-(6-Chloro-benzothiazol-2-ylamino)-1-methyl-1H-benzoimidazole-5-carboxylic acid (2-ethoxy-ethyl)-amide] showed a fold induction at 5 µM of 23.7. Same read-out and setting: next, `COC(=O)c1ccc2c(c1)nc(Nc1nc3cc(OC(F)(F)F)ccc3s1)n2C` [Example 99, 1-Methyl-2-(5-trifluoromethoxy-benzothiazol-2-ylamino)-1H-benzoimidazole-5-carboxylic acid methyl ester]: 8.5; `Cn1c(Nc2nc3ccc(Cl)cc3s2)nc2cc(C(=O)NC3CCN(CCC(=O)O)C3)ccc21` (centres unmarked) [Example 299, 3-(3-{[2-(6-Chloro-benzothiazol-2-ylamino)-1-methyl-1H-benzoimidazole-5-carbonyl]-amino}-pyrrolidin-1-yl)-propionic acid]: 16.7; `Cn1c(Nc2nc3ccc(Cl)cc3s2)nc2cc(C(=O)NCCOCCCF)ccc21` [Example 249, 2-(6-Chloro-benzothiazol-2-ylamino)-1-methyl-1H-benzoimidazole-5-carboxylic acid [2-(3-fluoro-propoxy)-ethyl]-amide]: 31.2. In turn, `COCCNC(=O)c1ccc2c(c1)nc(Nc1nc3ccc(OC(F)(F)F)cc3s1)n2CCOC` [Example 168, 1-(2-Methoxy-ethyl)-2-(6-trifluoromethoxy-benzothiazol-2-ylamino)-1H-benzoimidazole-5-carboxylic acid (2-methoxy-ethyl)-amide] gave a fold induction at 5 µM of 21.9.

`COCCn1c(Nc2nc3ccc(Cl)cc3s2)nc2cc(C(=O)NCC3CCN(C(=O)CN(C)C)CC3)ccc21` [Example 315, 2-(6-Chloro-benzothiazol-2-ylamino)-1-(2-methoxy-ethyl)-1H-benzoimidazole-5-carboxylic acid [1-(2-dimethylamino-acetyl)-piperidin-4-ylmethyl]-amide] gave a fold induction at 5 µM of 75.7.

In the case of `Cn1c(Nc2nc3ccc(OC(F)(F)F)cc3s2)nc2cc(C(=O)N[C@H]3CC[C@H](O)CC3)ccc21` [Example 52, 1-Methyl-2-(6-trifluoromethoxy-benzothiazol-2-ylamino)-1H-benzoimidazole-5-carboxylic acid (trans-4-hydroxy-cyclohexyl)-amide], the fold induction at 5 µM came to 10. In turn, `Cn1c(Nc2nc3ccc(OC(F)(F)F)cc3s2)nc2cc(C(=O)NCCOCC3CCCO3)ccc21` (centres unmarked) [Example 53, 1-Methyl-2-(6-trifluoromethoxy-benzothiazol-2-ylamino)-1H-benzoimidazole-5-carboxylic acid [2-(tetrahydro-furan-2-ylmethoxy)-ethyl]-amide] had a fold induction at 5 µM of 20.1. The compound `Cn1c(Nc2nc3ccc(OC(F)(F)F)cc3s2)nc2ccc(C(=O)NCCOCCO)cc21` [Example 286, 3-Methyl-2-(6-trifluoromethoxy-benzothiazol-2-ylamino)-3H-benzoimidazole-5-carboxylic acid [2-(2-hydroxy-ethoxy)-ethyl]-amide] registered a fold induction at 5 µM of 61.1. Same read-out and setting: next, `COCCn1c(Nc2nc3ccc(Cl)cc3s2)nc2cc(C(=O)NCC3CCN(CCO)CC3)ccc21` [Example 304, 2-(6-Chloro-benzothiazol-2-ylamino)-1-(2-methoxy-ethyl)-1H-benzoimidazole-5-carboxylic acid [1-(2-hydroxy-ethyl)-piperidin-4-ylmethyl]-amide]: 24.7. Consider `CCOCCNC(=O)c1ccc2c(c1)nc(Nc1nc3ccc(C(F)(F)F)cc3s1)n2C` [Example 85, 1-Methyl-2-(6-trifluoromethyl-benzothiazol-2-ylamino)-1H-benzoimidazole-5-carboxylic acid (2-ethoxy-ethyl)-amide], for which the fold induction at 5 µM stood at 11.6. The same measure, in the same setting: next, `CC(O)COCCNC(=O)c1ccc2c(c1)nc(Nc1nc3ccc(OC(F)(F)F)cc3s1)n2C` (centres unmarked) [Example 244, 1-Methyl-2-(6-trifluoromethoxy-benzothiazol-2-ylamino)-1H-benzoimidazole-5-carboxylic acid [2-(2-hydroxy-propoxy)-ethyl]-amide]: 28; `CNCC1CCCN(C(=O)CNC(=O)c2ccc3c(c2)nc(Nc2nc4ccc(Cl)cc4s2)n3C)C1` (centres unmarked) [Example 460, 2-(6-Chloro-benzothiazol-2-ylamino)-1-methyl-1H-benzoimidazole-5-carboxylic acid [2-(3-methylaminomethyl-piperidin-1-yl)-2-oxo-ethyl]-amid hydrochloride]: 27.5; `COc1cc2c(cc1C(=O)NCCN1CCOCC1)nc(Nc1nc3ccc(OC(F)(F)F)cc3s1)n2C` [Example 66, 6-Methoxy-1-methyl-2-(6-trifluoromethoxy-benzothiazol-2-ylamino)-1H-benzoimidazole-5-carboxylic acid (2-morpholin-4-yl-ethyl)-amide]: 20.8.

Take `CN(C)[C@H]1CCN(C(=O)CNC(=O)c2ccc3c(c2)nc(Nc2nc4ccc(Cl)cc4s2)n3C)C1` [Example 418, 2-(6-Chloro-benzothiazol-2-ylamino)-1-methyl-1H-benzoimidazole-5-carboxylic acid [2-((S)-3-dimethylamino-pyrrolidin-1-yl)-2-oxo-ethyl]-amide]: the fold induction at 5 µM worked out at 63.3. The compound `Cn1c(Nc2nc3ccc(Cl)cc3s2)nc2cc(C(=O)NCC(=O)N3CC[C@H](N)C3)ccc21` [Example 411, 2-(6-Chloro-benzothiazol-2-ylamino)-1-methyl-1H-benzoimidazole-5-carboxylic acid [2-((S)-3-amino-pyrrolidin-1-yl)-2-oxo-ethyl]-amide hydrochloride] gave a fold induction at 5 µM of 16. Compound `CN(C)C(=O)CNC(=O)c1cnc2c(c1)nc(Nc1nc3ccc(OC(F)(F)F)cc3s1)n2C` [Example 74, 3-Methyl-2-(6-trifluoromethoxy-benzothiazol-2-ylamino)-3H-imidazo[4,5-b]pyridine-6-carboxylic acid dimethylcarbamoylmethyl-amide] registered a fold induction at 5 µM of 11.1.

As a reminder, the fold induction is the signal under treatment as a multiple of the control signal. A lower fold induction goes with a weak induction.
